In series [1] the test system is Enterococcus faecalis ATCC 51299 (vanA-positive; vancomycin-resistant). As to the kind of experiment: In vitro antibacterial activity, MIC (UCL), VRE. Type of series: cell-based. In outline: (§1)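 Two-fold dilution MIC testing, 32–0.03 μg/mL, isosensitest broth medium. Cultures standardized by absorbance at 600 nm (0.1, ~1 × 10^8 CFU/mL) before 1:100 dilution; vancomycin included for quality control.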

Series [2] has as its system MRC-5SV2 (human lung fibroblast cell line). As to the kind of experiment: Toxicity against MRC-5SV2. Format: cell-based. The protocol:
(§2) ADME and toxicity for compounds were measured according to procedures outlined in the manuscript submitted in parallel to this one;2 other procedures were used for those compounds analysed by Monash University (in vitro ADME) or UCL (toxicity), both described in the main

For series [3], the system named is PMM (primary mouse macrophages). Kind of series: Toxicity against PMM. Type of series: cell-based. The procedure:
as §2

The subject of series [4] is S. aureus ATCC 25923 (methicillin-susceptible). Kind of series: In vitro antibacterial activity, MIC (UCL), MSSA. The following applies: for MIC: Staphylococcus aureus. Format: cell-based, Staphylococcus aureus. In short, it runs like this: as §1
In a further series the test system is VSE. As to the kind of experiment: In vitro antibacterial activity, MIC, VSE. Type of series: cell-based.
The subject of series [5] is Staphylococcus aureus NCTC 13373 (mecA-positive; methicillin-resistant). As to the kind of experiment: In vitro antibacterial activity, MIC (UCL School of Pharmacy assay), MRSA. Format: cell-based. The following applies: for MIC: Staphylococcus aureus. In outline: as §1

Converted amounts (≈) assume the structure as drawn. Like-named read-outs stand apart in the source and are kept apart here.

The term MIC denotes the lowest concentration found to suppress growth.

On to `c1ccc(-c2nc3ccccc3n2-c2ccc3occc3c2)nc1` [OSA_000991], for which the MIC was > 32 µg/mL in series [1] (read-out: VRE MIC (UCL)); > 32 µg/mL in series [4] (read-out: MSSA MIC (UCL)); > 32 µg/mL in the series with VSE (read-out: VSE MIC (UCL)); > 32 µg/mL in series [5] (UCL, read-out: MRSA MIC (UCL)). The “MRC5 TC50” value in series [2] (MRC5 cells) stood at 64 µM. For the same molecule, the “PMM TC50” value in series [3] (PMM) was 38.63 µM.
As to `c1ccc(-n2c(-c3ccccn3)nc3ccccc32)cc1` [OSA_000992], the MIC was > 32 µg/mL in series [1] (read-out: VRE MIC (UCL)); > 32 µg/mL in series [4] (read-out: MSSA MIC (UCL)); > 32 µg/mL with VSE (read-out: VSE MIC (UCL)); > 32 µg/mL in series [5] (UCL, read-out: MRSA MIC (UCL)). Further, the “MRC5 TC50” value in series [2] (MRC5 cells) amounted to 64 µM. Further, in series [3] (PMM), the “PMM TC50” value was found to be 64 µM.
For `c1ccc(Cn2c(-c3ccccn3)nc3ccccc32)cc1` [OSA_000993], the MIC was > 32 µg/mL in series [1] (read-out: VRE MIC (UCL)); > 32 µg/mL in series [4] (read-out: MSSA MIC (UCL)); > 32 µg/mL in the series with VSE (read-out: VSE MIC (UCL)); > 32 µg/mL in series [5] (UCL, read-out: MRSA MIC (UCL)). Further, the “MRC5 TC50” value in series [2] (MRC5 cells) came to 64 µM. The “PMM TC50” value in series [3] (PMM) is 64 µM.
For the molecule `c1ccc(-c2nc3ccccc3n2-c2ccc(N3CCCCC3)cc2)nc1` [OSA_000994], the MIC in series [1] (read-out: VRE MIC (UCL)) amounted to 32 µg/mL (≈ 90.3 µM); in series [4] (read-out: MSSA MIC (UCL)) it was 32 µg/mL (≈ 90.3 µM); in the series on VSE (read-out: VSE MIC (UCL)), 32 µg/mL (≈ 90.3 µM); in series [5] (UCL, read-out: MRSA MIC (UCL)), 16 µg/mL (≈ 45.1 µM). The “MRC5 TC50” value in series [2] (MRC5 cells) turned out to be 19.81 µM. For the same molecule, the “PMM TC50” value in series [3] (PMM) was found to be 15.32 µM.
On to `c1ccc(-c2nc3ccccc3n2-c2ccc(N3CCOCC3)cc2)nc1` [OSA_000995], for which the MIC in series [1] (read-out: VRE MIC (UCL)) was > 32 µg/mL; in series [4] (read-out: MSSA MIC (UCL)), > 32 µg/mL; with VSE (read-out: VSE MIC (UCL)) it was > 32 µg/mL; in series [5] (UCL, read-out: MRSA MIC (UCL)), > 32 µg/mL. Also, the “MRC5 TC50” value in series [2] (MRC5 cells) was found to be 64 µM. The “PMM TC50” value in series [3] (PMM) came to 64 µM.
As for `Clc1ccn2c(-c3ccc4occc4c3)c(-c3ccccn3)nc2c1` [compound 985], the “VRE MIC” value in series [1] amounted to 16 µg/mL. The “MSSA MIC” value in series [4] was found to be 8 µg/mL. The “VSE MIC” value in the series with VSE was 16 µg/mL. In addition, in series [5], the “MRSA MIC” value was 8 µg/mL.
Consider `Fc1ccc(-c2c(-c3ccccn3)nc3ccccn23)cn1` [compound 986], for which the MIC (in series [1] (read-out: VRE MIC); in series [4] (read-out: MSSA MIC); with VSE (read-out: VSE MIC); in series [5] (read-out: MRSA MIC)) was > 32 µg/mL throughout. For the same molecule, the “activity against MRSA, in words” value in series [5] was “inactive”.
Turning to `Cc1ccc(Nc2c(-c3ccccn3)nc3ccccn23)cc1` [compound 988], the MIC was 16 µg/mL (≈ 53.3 µM) in series [1] (read-out: VRE MIC), 4 µg/mL (≈ 13.3 µM) in series [4] (read-out: MSSA MIC), 16 µg/mL (≈ 53.3 µM) with VSE (read-out: VSE MIC) and 4 µg/mL (≈ 13.3 µM) in series [5] (read-out: MRSA MIC).
Consider `c1ccc(-c2nc3ccccc3n2-c2ccc3occc3c2)nc1` [compound 991], for which the “VRE MIC” value in series [1] is > 32 µg/mL. Moreover, the “MRC5 TC50” value in series [2] was 19.9 µg/mL. Further, the “PMM TC50” value in series [3] stood at 12.0 µg/mL. For the same molecule, in series [4], the “MSSA MIC” value is given as > 32 µg/mL. Moreover, the “VSE MIC” value in the series with VSE is > 32 µg/mL.
As for `OC1CCn2c1nc(-c1ccccn1)c2-c1ccc2occc2c1` (stereo not drawn) [compound 997], the MIC (in series [1] (read-out: VRE MIC); in series [1] (read-out: VRE MIC (UCL)); in series [4] (read-out: MSSA MIC); in series [4] (read-out: MSSA MIC (UCL)); in the series on VSE (read-out: VSE MIC); in the series with VSE (read-out: VSE MIC (UCL))) was > 32 µg/mL in each case. Also, the MIC is > 32 µg/mL in series [5] (16 h, read-out: MRSA MIC); > 32 µg/mL in series [5] (UCL, read-out: MRSA MIC (UCL)); > 32 µg/mL in series [5] (read-out: MRSA MIC). In addition, the “activity against MRSA, in words” value in series [5] is “inactive”.
Consider `COc1ccc2nc(-c3ccccn3)c(N(C)c3cc(F)cc(F)c3)n2c1` [compound 998], for which the “VRE MIC” value in series [1] was found to be 32 µg/mL. Further, the “MSSA MIC” value in series [4] amounted to 8 µg/mL. In addition, the “VSE MIC” value with VSE is given as 16 µg/mL. In addition, the “MRSA MIC” value in series [5] amounted to 8 µg/mL.
Consider `COc1ccnc(-c2nc3cc(OC)ccn3c2N(C)c2ccc(F)cc2)c1` [compound 1000], for which the “VRE MIC” value in series [1] is listed as 8 µg/mL. For the same molecule, in series [4], the “MSSA MIC” value came out at 8 µg/mL. Moreover, in the series on VSE, the “VSE MIC” value is given as 8 µg/mL. For the same molecule, the “MRSA MIC” value in series [5] stood at 2 µg/mL.
